# Experimental data as given in patent publication USRE49698E1, “Substituted dihydroquinazolines” (AiCuris Anti-infective Cures GmbH, priority 2003, dated 2023).
# Where a name gives a salt, the structure may show the parent alone. Read-outs that look alike come from different tables or passages of the source.
# Columns and labels:
# HCMV = experiment: Anti-HCMV (anti-human cytomegalovirus) cytopathogenicity test; format: cell-based
# Method: (§1) Anti-HCMV (Anti-Human Cytomegalovirus) Cytopathogenicity Tests
# (§2) The test compounds are employed as 50 millimolar (mM) solutions in dimethyl sulphoxide (DMSO). Ganciclovir®, Foscarnet® and Cidofovir® are used as reference compounds. After addition of in each case 2 μl of the 50, 5, 0.5 and 0.05 mM DMSO stock solutions to 98 μl portions of cell culture medium in row 2 A-H for duplicate determinations, 1:2 dilutions are carried out with 50 μl portions of medium up to row 11 of the 96-well plate. The wells in rows 1 and 12 each contain 50 μl of medium. In 150 μl of a suspension of 1×10^4 cells (human prepuce fibroblasts [NHDF]) are pipetted into each of the wells (row 1=cell control) and, in rows 2-12, a mixture of HCMV-infected and uninfected NHDF cells (M.O.I.=0.001-0.002), i.e. 1-2 infected cells per 1000 uninfected cells. Row 12 (without substance) serves as virus control. The final test concentrations are 250-0.0005 μM. The plates are incubated at 37° C./5% CO2 for 6 days, i.e. until all the cells are infected in the virus controls (100% cytopathogenic effect [CPE]). The wells are then fixed and stained by adding a mixture of formalin and Giemsa's dye (30 minutes), washed with double-distilled water and dried in a drying oven at 50° C. The plates are then assessed visually using an overhead microscope (Plaque Multiplier from Technomara).
# The following data can be acquired from the test plates:
# SI (selectivity index)=CC50 (NHDF)/EC50 (HCMV).
# [1] = Cytostatic effect on NHDF cells in the anti-HCMV cytopathogenicity test plates; format: cell-based; details: human, human prepuce fibroblasts (NHDF cells), 6 days incubation, visual assessment, concentration at which no visible cytostatic effects are evident vs untreated cell control
# Method: as §1, §2
# The following data can be acquired from the test plates: […]
# [2] = Human betaherpesvirus 5, NHDF, 144 h; read-out: HCMV EC50
# [3] = Human betaherpesvirus 5, NHDF, 144 h, read-out: HCMV EC50
SMILES,EC50 (HCMV; [2]),SI HCMV (selectivity index) (HCMV; CC50 (NHDF)/EC50 (HCMV)),CC50 at 6 days [1],EC50 (HCMV; [3])
"O=C(O)CC1c2cccc(F)c2N=C(N2CCN(c3ccc(F)cc3)CC2)N1c1cccc(C(F)(F)F)c1 (single isomer, unassigned) [Example 2, {8-Fluoro-2-[4-(4-fluorophenyl)-1-piperazinyl]-3-[3-(trifluoromethyl)phenyl]-3,4-dihydro-4-quinazolinyl}acetic acid]",16 nM,750,12000 nM,
"COc1ccc(Cl)cc1N1C(N2CCN(c3ccc(F)cc3)CC2)=Nc2c(F)cccc2C1CC(=O)O (single isomer, unassigned) [Example 23, {8-Fluoro-2-[4-(4-fluorophenyl)-1-piperazinyl]-3-[6-methoxy-3-chlorophenyl]-3,4-dihydro-4-quinazolinyl}acetic acid hydrochloride]",,12632,24000 nM,2 nM
"Cc1cccc(N2CCN(C3=Nc4c(F)cccc4C(CC(=O)O)N3c3cccc(C(F)(F)F)c3)CC2)c1 (single isomer, unassigned) [Example 9, {8-Fluoro-2-[4-(3-methylphenyl)-1-piperazinyl]-3-[3-(trifluoromethyl)phenyl]-3,4-dihydro-4-quinazolinyl}acetic acid hydrochloride]",,750,15000 nM,20 nM
NC(=O)c1ccc2c(c1)C(CC(=O)O)N(c1cccc(C(F)(F)F)c1)C(N1CCN(c3cccc(Cl)c3)CC1)=N2 (stereo not shown) [Example 29],70 nM,671,47000 nM,

# Second part, led by results:
EC50 (HCMV; [2]),SMILES,SI HCMV (selectivity index) (HCMV; CC50 (NHDF)/EC50 (HCMV)),CC50 at 6 days [1],EC50 (HCMV; [3])
2 nM,"COc1ccc(C(F)(F)F)cc1N1C(N2CCN(c3ccc(F)cc3)CC2)=Nc2c(F)cccc2C1CC(=O)O (single isomer, unassigned) [Example 19, {8-Fluoro-2-[4-(4-fluorophenyl)-1-piperazinyl]-3-[2-methoxy-5-(trifluoromethyl)phenyl]-3,4-dihydro-4-quinazolinyl}acetic acid]",8947,17000 nM,
2 nM,"COc1cccc(N2CCN(C3=Nc4c(F)cccc4C(CC(=O)O)N3c3cc(C(F)(F)F)ccc3OC)CC2)c1 (single isomer, unassigned) [Example 15, {8-Fluoro-2-[4-(3-methoxyphenyl)-1-piperazinyl]-3-[2-methoxy-5-(trifluoromethyl)phenyl]-3,4-dihydro-4-quinazolinyl}acetic acid]",,,
